Like-named read-outs stand apart in the source and are kept apart here.
Key:
[1] = In vitro aldehyde capture capacity test (complexing with nonanal, HPLC at 254 nm); conditions: for Area under the curve AUC / Slope (linear equation of percentage content of complexed products vs time): nonanal 1.0 eq, compound 1.0 eq, 20-23° C., 10-300 min, HPLC 254 nm; for Slope (linear equation of percentage content of complexed products vs time): in %/min
Protocol: Objective: dry eye disease is caused by inflammation in eyes, wherein the inflammation may produce aldehydes that will accelerate the inflammation symptoms and worsen the dry eye disease if not eliminated in time. In the experiment, a better compound was selected according to the complexing capacity of the drug and aldehydes in vivo by simulating the in vivo environment.
Procedures: Sulfobutyl-B-cyclodextrin (310 mg) was dissolved in a phosphate buffer (1.25 mL) to prepare a solution.
Nonanal (5.0 mg, 32 μmol, 1.0 eq) and triolein (300 mg) were added to a reaction flask at room temperature, after addition of the prepared solution described above, linoleic acid (300 mg) was added, and finally a dimethyl sulfoxide (0.15 ml) solution containing the compound (32 μmol, 1.0 eq) of the present disclosure was added; the reaction solution was reacted at 20-23° C.
The reaction solution was reacted under stirring for 10 min, 100 min, 200 min, and 300 min respectively, and sampled for high performance liquid chromatography after the solution was stratified after standing for 2 min.
Sampling method: 25 μl of an upper emulsified layer and 50 μl of a lower aqueous phase were sampled by a pipette, and samples were diluted with 1 mL of methanol.
The ultraviolet absorption of the nonanal was weak at 254 nm, so the nonanal had little overall effect on the content of complexed products. Therefore, the percentage contents of complexes at 254 nm under high performance liquid chromatography were compared to observe aldehyde capture and complexing capacities, as shown in FIG. 1 and Table 1:
Taking The compound 7 as an example, after 300 min of reaction, the analytical method for HPLC was XBRIGE 2.5 μm, 3.0*100 mm 5-80CD_XBEH_12 min_0.8.1 cm;
Retention time 6.689 min, 6.787 min, 6.966 min, and 7.102 min were absorption peaks of products complexed with monomolecular aldehyde;
Retention time 8.905 min, 9.010 min, and 9.075 min were absorption peaks of products complexed with bimolecular aldehyde.

[2] = Corneal and plasma drug concentration after eye drops in rats; format: in vivo; conditions: for entry into the cornea by eye drops: SD rats, result in words
Protocol: Objective: To Study the Ratio of Corneal to Plasma Drug Concentration After Eye Drops in Rats
Experimental Materials: Male SD Rats, 200-300 g, 7-9 weeks old, Shanghai Lingchang
Experimental procedures: The candidate compound was prepared as a clear solution, and administered to SD rats by eye drops. The vehicle for eye drops was 10% hydroxypropyl β-cyclodextrin aqueous solution, and the drug concentration in the eye drops was 5 mg/mL. Corneal and whole blood samples were collected at 1 and 4 hours, respectively. The corneal samples was homogenized in 15 mM phosphate buffer (PBS): MeoH (2:1, v: v) buffer, the whole blood samples were centrifuged at 3000 r for 10 min, and the supernatant plasma samples were separated. 20 μL of the plasma samples and homogenate samples were mixed with 400 μL of acetonitrile precipitated proteins containing an internal standard, respectively, and 2 μL of the supernatant was injected by centrifugation. The plasma concentrations were quantified by LC-MS/MS analysis; the drug concentrations in the cornea and plasma were measured respectively according to different time points, and the ratio of corneal/plasma concentrations was calculated.

CYP1A2 = target: T1, CYP1A2 (Homo sapiens, UniProt P05177); assay: Inhibition of human liver microsomal cytochrome P450 CYP1A2; format: in vitro ADME; conditions: human liver microsomes, probe substrate, NADPH
T1 construct: fused human liver microsomes were selected as a CYP450 enzyme source; from tissue; host or cells: pooled ("fused") human liver microsomes
T1 sequence (P05177 1-516): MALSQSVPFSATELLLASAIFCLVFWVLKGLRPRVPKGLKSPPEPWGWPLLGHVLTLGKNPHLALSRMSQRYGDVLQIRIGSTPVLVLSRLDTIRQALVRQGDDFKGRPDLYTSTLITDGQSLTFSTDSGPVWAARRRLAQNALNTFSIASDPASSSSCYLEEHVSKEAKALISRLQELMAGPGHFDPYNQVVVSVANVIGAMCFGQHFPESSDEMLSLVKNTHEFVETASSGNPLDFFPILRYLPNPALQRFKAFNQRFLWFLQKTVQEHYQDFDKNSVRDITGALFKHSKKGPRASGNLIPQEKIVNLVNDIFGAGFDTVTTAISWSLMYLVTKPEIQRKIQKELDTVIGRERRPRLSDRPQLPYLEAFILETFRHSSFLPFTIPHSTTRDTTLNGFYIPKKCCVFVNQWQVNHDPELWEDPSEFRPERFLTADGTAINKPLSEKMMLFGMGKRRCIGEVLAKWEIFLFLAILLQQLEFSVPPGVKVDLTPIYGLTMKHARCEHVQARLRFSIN
Text: (§1) Objective: To study the inhibitory effect of compounds on human liver microsomal cytochrome P450. Experimental procedures: In the study on inhibition of the compounds on the human liver microsomal cytochrome P450 (CYP1A2, CYP2C9, CYP2C19, CYP2D6 and CYP3A4), fused human liver microsomes were selected as a CYP450 enzyme source. […]

CYP2C9 = target: T2, CYP2C9 (Homo sapiens, UniProt P11712); assay: Inhibition of human liver microsomal cytochrome P450 CYP2C9; format: in vitro ADME; conditions: human liver microsomes, probe substrate, NADPH
T2 construct: fused human liver microsomes were selected as a CYP450 enzyme source; from tissue; host or cells: pooled ("fused") human liver microsomes
Text: as §1

CYP2C19 = target: T3, CYP2C19 (Homo sapiens, UniProt P33261); assay: Inhibition of human liver microsomal cytochrome P450 CYP2C19; format: in vitro ADME; conditions: human liver microsomes, probe substrate, NADPH
T3 construct: fused human liver microsomes were selected as a CYP450 enzyme source; from tissue; host or cells: pooled ("fused") human liver microsomes
Text: as §1

CYP2D6 = target: T4, CYP2D6 (Homo sapiens, UniProt P10635); assay: Inhibition of human liver microsomal cytochrome P450 CYP2D6; format: in vitro ADME; conditions: human liver microsomes, probe substrate, NADPH
T4 construct: fused human liver microsomes were selected as a CYP450 enzyme source; from tissue; host or cells: pooled ("fused") human liver microsomes
Text: as §1

CYP3A4 = target: T5, CYP3A4 (Homo sapiens, UniProt P08684); assay: Inhibition of human liver microsomal cytochrome P450 CYP3A4; format: in vitro ADME; conditions: human liver microsomes, two probe substrates, NADPH
T5 construct: fused human liver microsomes were selected as a CYP450 enzyme source; from tissue; host or cells: pooled ("fused") human liver microsomes
Text: as §1

T3 sequence (P33261 whole entry, the tested form may be a part): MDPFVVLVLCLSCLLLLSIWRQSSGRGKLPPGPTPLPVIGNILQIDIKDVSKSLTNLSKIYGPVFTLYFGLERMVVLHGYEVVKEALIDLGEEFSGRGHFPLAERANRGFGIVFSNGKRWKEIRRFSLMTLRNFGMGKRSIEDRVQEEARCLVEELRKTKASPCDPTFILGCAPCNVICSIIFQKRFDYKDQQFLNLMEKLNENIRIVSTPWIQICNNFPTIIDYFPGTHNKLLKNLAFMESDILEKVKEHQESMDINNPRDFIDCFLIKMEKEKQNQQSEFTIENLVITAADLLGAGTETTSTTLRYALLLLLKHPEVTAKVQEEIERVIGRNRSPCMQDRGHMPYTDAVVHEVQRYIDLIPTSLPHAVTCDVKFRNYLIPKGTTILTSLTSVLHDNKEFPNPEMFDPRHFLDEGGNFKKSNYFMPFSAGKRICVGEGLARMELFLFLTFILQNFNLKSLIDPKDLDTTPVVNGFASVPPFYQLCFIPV
T4 sequence (P10635 whole entry, the tested form may be a part): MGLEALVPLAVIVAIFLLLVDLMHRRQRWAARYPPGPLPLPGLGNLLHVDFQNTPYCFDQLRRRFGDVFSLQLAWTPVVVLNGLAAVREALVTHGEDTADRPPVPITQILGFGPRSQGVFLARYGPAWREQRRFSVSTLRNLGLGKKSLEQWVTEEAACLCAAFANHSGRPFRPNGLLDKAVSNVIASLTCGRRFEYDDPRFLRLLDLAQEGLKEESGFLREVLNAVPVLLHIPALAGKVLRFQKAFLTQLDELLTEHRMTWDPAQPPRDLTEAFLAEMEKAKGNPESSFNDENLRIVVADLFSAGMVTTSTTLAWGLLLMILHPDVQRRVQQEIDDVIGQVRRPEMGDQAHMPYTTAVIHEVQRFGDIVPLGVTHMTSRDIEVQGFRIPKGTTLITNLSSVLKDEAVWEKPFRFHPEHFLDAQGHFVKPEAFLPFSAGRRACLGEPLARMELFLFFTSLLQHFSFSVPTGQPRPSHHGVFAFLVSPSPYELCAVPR
T2 sequence (P11712 whole entry, the tested form may be a part): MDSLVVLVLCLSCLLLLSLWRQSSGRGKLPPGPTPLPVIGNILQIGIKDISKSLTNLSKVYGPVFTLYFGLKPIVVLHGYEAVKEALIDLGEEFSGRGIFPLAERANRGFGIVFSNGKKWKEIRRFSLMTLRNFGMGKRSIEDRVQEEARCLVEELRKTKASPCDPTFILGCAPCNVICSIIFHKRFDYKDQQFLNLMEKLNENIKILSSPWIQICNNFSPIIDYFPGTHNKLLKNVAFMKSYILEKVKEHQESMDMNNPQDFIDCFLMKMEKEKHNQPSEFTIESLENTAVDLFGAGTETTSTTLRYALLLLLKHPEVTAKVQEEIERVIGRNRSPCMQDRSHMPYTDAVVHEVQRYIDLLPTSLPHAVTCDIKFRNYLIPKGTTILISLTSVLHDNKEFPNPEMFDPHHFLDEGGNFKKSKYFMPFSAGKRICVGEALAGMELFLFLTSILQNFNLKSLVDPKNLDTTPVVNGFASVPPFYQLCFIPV
T5 sequence (P08684 whole entry, the tested form may be a part): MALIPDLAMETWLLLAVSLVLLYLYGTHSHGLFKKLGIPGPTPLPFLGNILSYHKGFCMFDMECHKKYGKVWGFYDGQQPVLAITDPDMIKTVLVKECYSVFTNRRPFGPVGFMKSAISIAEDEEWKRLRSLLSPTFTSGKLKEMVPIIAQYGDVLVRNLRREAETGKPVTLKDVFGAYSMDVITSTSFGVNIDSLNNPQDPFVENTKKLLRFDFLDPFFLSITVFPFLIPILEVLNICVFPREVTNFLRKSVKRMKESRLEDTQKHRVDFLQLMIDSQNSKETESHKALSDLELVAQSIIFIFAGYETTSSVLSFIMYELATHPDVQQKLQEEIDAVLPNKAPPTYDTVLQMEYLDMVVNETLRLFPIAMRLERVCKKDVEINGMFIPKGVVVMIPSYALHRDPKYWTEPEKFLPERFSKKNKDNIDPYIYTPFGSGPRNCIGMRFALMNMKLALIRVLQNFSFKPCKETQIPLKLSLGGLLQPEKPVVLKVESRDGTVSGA

SMILES	percentage content of complexed products at 254 nm ([1]; Time 10 min) [%]	percentage content of complexed products at 254 nm ([1]; Time 100 min) [%]	percentage content of complexed products at 254 nm ([1]; Time 200 min) [%]	percentage content of complexed products at 254 nm ([1]; Time 300 min) [%]	Area under the curve AUC [1] [min. Conversion]	Slope (linear equation of percentage content of complexed products vs time) [1]	entry into the cornea by eye drops [2]	IC50 (CYP1A2) [µM]	IC50 (CYP2C9) [µM]	IC50 (CYP2C19) [µM]	IC50 (CYP2D6) [µM]	IC50 (CYP3A4) [µM]	concentration at 1 h ([2]; male, Sprague-Dawley (SD), rat, cornea, topical, eye drops 5 mg/mL, 1 h, read-out: Corneal Concentration) [nM]	concentration at 4 h ([2]; male, Sprague-Dawley (SD), rat, cornea, topical, eye drops 5 mg/mL, 4 h, read-out: Corneal Concentration) [nM]	Kp at 1 h ([2]; male, Sprague-Dawley (SD), rat, cornea/plasma, topical, eye drops 5 mg/mL, 1 h, read-out: Corneal Concentration/Plasma Concentration C/P ratio)	Kp at 4 h ([2]; male, Sprague-Dawley (SD), rat, cornea/plasma, topical, eye drops 5 mg/mL, 4 h, read-out: Corneal Concentration/Plasma Concentration C/P ratio)	concentration at 1 h ([2]; male, Sprague-Dawley (SD), rat, plasma, topical, eye drops 5 mg/mL, 1 h, read-out: Plasma Concentration) [nM]	concentration at 4 h ([2]; male, Sprague-Dawley (SD), rat, plasma, topical, eye drops 5 mg/mL, 4 h, read-out: Plasma Concentration) [nM]
CC(C)(O)c1nc(Oc2ccc(N)c(C(C)(C)O)n2)ccc1N [Compound 2]	2.658	4.097	4.721	5.796	1271	0.0103												
CC(C)(O)c1cc(F)c(-c2cnc(C(C)(C)O)c(N)c2)cc1N [Compound 7]	6.634	20.013	29.424	36.039	6944	0.1002	could enter the cornea by eye drops											
CC(C)(O)c1ccc(-n2cc(C(C)(C)O)c(N)cc2=O)cc1N [Compound 9]	12.268	31.427	43.086	48.761	10284	0.1241												
CC(C)(O)c1ncc(-c2cnc(C(C)(C)O)c(N)c2)cc1N [Compound 4]	1.475	7.663	13.353	18.636	3061	0.0589												
CC(C)(O)c1cc(F)c(Oc2ccc(N)c(C(C)(C)O)n2)cc1N [Compound 6]	9.738	27.850	37.847	41.686	8953	0.1083												
CC(C)(O)c1nc(-c2ccc(N)c(C(C)(C)O)n2)ccc1N [Compound 1]	0.917	4.909	4.383	6.224	1257	0.0157												
CC(C)(O)c1cc(Cl)c(-c2cnc(C(C)(C)O)c(N)c2)cc1N [Compound 8]	4.117	12.121	15.49	19.873	3879	0.0519	could enter the cornea by eye drops	> 50	> 50	> 50	> 50	> 50	1660	167	12	3.72	148	36.4

— patent US12479823B2, “Compound for use in retinal diseases” (ZHUHAI UNITED LABORATORIES CO., LTD., priority 2018, dated 2025)
